Patent US20250213701A1, “MEDICAMENT FOR TREATING HUMAN TUMOR BASED ON ERF3A-TARGETING PROTEOLYSIS MECHANISM” (SUZHOU DEGEN BIO-MEDICAL CO., LTD., priority 2022, published 2025)

Tests used:
Type in all cases: cell-based, human
PC-3 cells = test: Anti-proliferative toxicity against prostate cancer cell line PC-3 (CCK8); conditions: 3 days
In short: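 PC-3 cells (4000/well, pre-cultured 24 h) exposed in triplicate to compound at final 0.00001-1.0 μM for 3 days at 37 °C, 5% CO2. Viability read by CCK8, 1-4 h at 37 °C, absorbance at 450 nm.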

22Rv1 cells = test: Anti-proliferative toxicity against prostate cancer cell line 22Rv1 (CCK8); conditions: 3 days, CCK8
In short: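 22Rv1 cells pre-cultured for 48 h, then exposed to compounds at 0.00001-1.0 μM final, in triplicate, for 3 days. Viability read by CCK8 absorbance at 450 nm after 1-4 h at 37 °C.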

VCaP cells = test: Anti-proliferative toxicity against prostate cancer cell line Vcap (CCK8); conditions: 3 days, CCK8
In short: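 VCaP cells (DMEM, 10% FBS) seeded 20000 cells/well, cultured 72 h, then exposed in triplicate to compound at final well concentrations of 0.00001–0.16 μM for 3 days at 37 °C, 5% CO2. Viability by CCK8, 1–4 h at 37 °C, absorbance at 450 nm.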

C[C@]12C=CC(=O)N[C@@H]1CC[C@@H]1[C@@H]2CC[C@]2(C)[C@@H](C(=O)Nc3cc(OCCCNc4cccc5c4C(=O)N(C4CCC(=O)NC4=O)C5=O)ccn3)CC[C@@H]12 (stereo partly drawn) [C53, N-(2-(4-((3-((4-(2-(3-(2,6-dioxopiperidine))-isoindole-1,3-dione))amino)propyl)oxy)-pyridine))-3-oxo-4-aza-5α-androst-1-ene-17β-carboxamide]
IC50 (PC-3 cells; Homo sapiens, 72 h): > 1000 nM | IC50 (22Rv1 cells; Homo sapiens, 72 h): > 1000 nM | IC50 (VCaP cells; Homo sapiens, 72 h): > 1000 nM

C[C@]12C=CC(=O)N[C@@H]1CC[C@@H]1[C@@H]2CC[C@]2(C)[C@@H](C(=O)Nc3cccc(OCCCCCNc4cccc5c4C(=O)N(C4CCC(=O)NC4=O)C5=O)c3)CC[C@@H]12 (stereo partly drawn) [C33, N-(3-((5-((4-(2-(3-(2,6-dioxopiperidine))-isoindole-1,3-dione))amino)pentyl)oxy)phenyl)-3-oxo-4-aza-5α-androst-1-ene-171β-carboxamide]
IC50 (PC-3 cells; Homo sapiens, 72 h): > 1000 nM | IC50 (22Rv1 cells; Homo sapiens, 72 h): > 1000 nM | IC50 (VCaP cells; Homo sapiens, 72 h): > 1000 nM

Cc1ccc(NC(=O)[C@H]2CC[C@H]3[C@@H]4CC[C@H]5NC(=O)C=C[C@]5(C)[C@H]4CC[C@]23C)cc1OCCCNc1cccc2c1C(=O)N(C1CCC(=O)NC1=O)C2=O (stereo partly drawn) [C52, N-(3-((3-((4-(2-(3-(2,6-dioxopiperidine))-isoindole-1,3-dione))amino)propyl)oxy)-4-methyl-phenyl)-3-oxo-4-aza-5α-androst-1-ene-17β-carboxamide]
IC50 (PC-3 cells; Homo sapiens, 72 h): > 1000 nM | IC50 (22Rv1 cells; Homo sapiens, 72 h): > 1000 nM | IC50 (VCaP cells; Homo sapiens, 72 h): > 1000 nM

N-(3-(N—(N-(4-(2-(3-(2,6-dioxopiperidine))-isoindole-1,3-dione))-(1R,5S)-bicyclo[3,2,2]nonane-7R,8R-diamine))phenyl)-3-oxo-4-aza-5α-androst-1-ene-17β-carboxamide and N-(3-(N—(N-(4-(2-(3-(2,6-dioxopiperidine))-isoindole-1,3-dione))-(1S,5R)-bicyclo[3,2,2]nonane-7R,8R-diamine))phenyl)-3-oxo-4-aza-5α-androst-1-ene-17β-carboxamide [C73]
IC50 (PC-3 cells): > 1000 nM | IC50 (22Rv1 cells): 10 to 1000 nM | IC50 (VCaP cells): 10 to 1000 nM

C[C@]12C=CC(=O)N[C@@H]1CC[C@@H]1[C@@H]2CC[C@]2(C)[C@@H](C(=O)N3CCC(CN4CCN(c5cccc6c5C(=O)N(C5CCC(=O)NC5=O)C6=O)CC4)CC3)CC[C@@H]12 (stereo partly drawn) [C13, 1-(4-(2-(3-(2,6-dioxopiperidine))-isoindole-1,3-dione))-4-(4-(1-(3-oxo-4-aza-5α-androst-1-ene-17β-formyl)piperidine)methyl)-piperazine]
IC50 (PC-3 cells; Homo sapiens, 72 h): > 1000 nM | IC50 (22Rv1 cells; Homo sapiens, 72 h): > 1000 nM | IC50 (VCaP cells; Homo sapiens, 72 h): > 1000 nM

C[C@]12C=CC(=O)N[C@@H]1CC[C@@H]1[C@@H]2CC[C@]2(C)[C@@H](C(=O)Nc3ccc(Cl)c(OCCCNc4cccc5c4C(=O)N(C4CCC(=O)NC4=O)C5=O)c3)CC[C@@H]12 (stereo partly drawn) [C51, N-(3-((3-((4-(2-(3-(2,6-dioxopiperidine))-isoindole-1,3-dione))amino)propyl)oxy)-4-chloro-phenyl)-3-oxo-4-aza-5α-androst-1-ene-17β-carboxamide]
IC50 (PC-3 cells; Homo sapiens, 72 h): > 1000 nM | IC50 (22Rv1 cells; Homo sapiens, 72 h): > 1000 nM | IC50 (VCaP cells; Homo sapiens, 72 h): > 1000 nM

CC(C)(C)C(=O)OCN1C(=O)CC[C@H](N2C(=O)c3cccc(N[C@@H]4CCC[C@@H](Nc5cccc(NC(=O)[C@H]6CC[C@H]7[C@@H]8CC[C@H]9NC(=O)C=C[C@]9(C)[C@H]8CC[C@]67C)c5)C4)c3C2=O)C1=O [C67, N-(3-(N—(N-(4-(2-(3S-(1-pivaloyloxymethyl-2,6-dioxopiperidine))-isoindole-1,3-dione))-1R,3R-cyclohexanediamine))phenyl)-3-oxo-4-aza-5α-androst-1-ene-17β-carboxamide]
IC50 (PC-3 cells; Homo sapiens, 72 h): 0.1 to 10 nM | IC50 (22Rv1 cells; Homo sapiens, 72 h): 0.1 to 10 nM | IC50 (VCaP cells; Homo sapiens, 72 h): ≤ 0.1 nM

C[C@]12C=CC(=O)N[C@@H]1CC[C@@H]1[C@@H]2CC[C@]2(C)[C@@H](C(=O)NCCCNc3cccc4c3C(=O)N(C3CCC(=O)NC3=O)C4=O)CC[C@@H]12 (stereo partly drawn) [C3, N-(3-((4-(2-(3-(2,6-dioxopiperidine))-isoindole-1,3-dione))amino)propyl)-3-oxo-4-aza-5α-androst-1-ene-17β-carboxamide]
IC50 (PC-3 cells; Homo sapiens, 72 h): > 1000 nM | IC50 (22Rv1 cells; Homo sapiens, 72 h): > 1000 nM | IC50 (VCaP cells; Homo sapiens, 72 h): > 1000 nM

N-(3-(N—(N-(4-(2-(3-(2,6-dioxopiperidine))-isoindole-1,3-dione))-(1R,4S)-bicyclo[2,2,2]octane-2R,6R-diamine))phenyl)-3-oxo-4-aza-5α-androst-1-ene-17β-carboxamide and N-(3-(N—(N-(4-(2-(3-(2,6-dioxopiperidine))-isoindole-1,3-dione))-(1S,4R)-bicyclo[2,2,2]octane-2R,6R-diamine))phenyl)-3-oxo-4-aza-5α-androst-1-ene-17β-carboxamide [C72]
IC50 (PC-3 cells): > 1000 nM | IC50 (22Rv1 cells): 10 to 1000 nM | IC50 (VCaP cells): 10 to 1000 nM

C[C@]12C=CC(=O)N[C@@H]1CC[C@@H]1[C@@H]2CC[C@]2(C)[C@@H](C(=O)Nc3cccc(N[C@H]4CCC[C@@H](Nc5cccc6c5C(=O)N(C5CCC(=O)NC5=O)C6=O)C4)c3)CC[C@@H]12 (stereo partly drawn) [C61, N-(3-(N—(N-(4-(2-(3-(2,6-dioxopiperidine))-isoindole-1,3-dione))-1S,3R-cyclohexanediamine))phenyl)-3-oxo-4-aza-5α-androst-1-ene-17β-carboxamide]
IC50 (PC-3 cells; Homo sapiens, 72 h): > 1000 nM | IC50 (22Rv1 cells; Homo sapiens, 72 h): > 1000 nM | IC50 (VCaP cells; Homo sapiens, 72 h): > 1000 nM

C[C@]12C=CC(=O)N[C@@H]1CC[C@@H]1[C@@H]2CC[C@]2(C)[C@@H](C(=O)N3CCC(CN4CCN(c5ccc6c(c5)C(=O)N(C5CCC(=O)NC5=O)C6=O)CC4)CC3)CC[C@@H]12 (stereo partly drawn) [C14, 1-(5-(2-(3-(2,6-dioxopiperidine))-isoindole-1,3-dione))-4-(4-(1-(3-oxo-4-aza-5α-androst-1-ene-17β-formyl)piperidine)methyl)-piperazine]
IC50 (PC-3 cells; Homo sapiens, 72 h): > 1000 nM | IC50 (22Rv1 cells; Homo sapiens, 72 h): > 1000 nM | IC50 (VCaP cells; Homo sapiens, 72 h): > 1000 nM

C[C@]12C=CC(=O)N[C@@H]1CC[C@@H]1[C@@H]2CC[C@]2(C)[C@@H](C(=O)Nc3cccc(OC4CCC(Nc5cccc6c5C(=O)N(C5CCC(=O)NC5=O)C6=O)C4)c3)CC[C@@H]12 (stereo partly drawn) [C57, N-(3-((3-((4-(2-(3-(2,6-dioxopiperidine))-isoindole-1,3-dione))amino)cyclopentyl)oxy)phenyl)-3-oxo-4-aza-5α-androst-1-ene-17β-carboxamide]
IC50 (PC-3 cells; Homo sapiens, 72 h): > 1000 nM | IC50 (22Rv1 cells; Homo sapiens, 72 h): 10 to 1000 nM | IC50 (VCaP cells; Homo sapiens, 72 h): 10 to 1000 nM

C[C@]12C=CC(=O)N[C@@H]1CC[C@@H]1[C@@H]2CC[C@]2(C)[C@@H](C(=O)Nc3cccc(N[C@@H]4CNC[C@@H](Nc5cccc6c5C(=O)N(C5CCC(=O)NC5=O)C6=O)C4)c3)CC[C@@H]12 (stereo partly drawn) [C76, N-(3-(N—(N-(4-(2-(3-(2,6-dioxopiperidine))-isoindole-1,3-dione))-piperidine-3S,5S-diamine))phenyl)-3-oxo-4-aza-5α-androst-1-ene-17β-carboxamide]
IC50 (PC-3 cells; Homo sapiens, 72 h): 10 to 1000 nM | IC50 (22Rv1 cells; Homo sapiens, 72 h): 10 to 1000 nM | IC50 (VCaP cells; Homo sapiens, 72 h): 10 to 1000 nM

C[C@]12C=CC(=O)N[C@@H]1CC[C@@H]1[C@@H]2CC[C@]2(C)[C@@H](C(=O)Nc3ccc(OCCCNc4cccc5c4C(=O)N(C4CCC(=O)NC4=O)C5=O)cc3)CC[C@@H]12 (stereo partly drawn) [C17, N-(4-((3-((4-(2-(3-(2,6-dioxopiperidine))-isoindole-1,3-dione))amino)propyl)oxy)phenyl)-3-oxo-4-aza-5α-androst-1-ene-17β-carboxamide]
IC50 (PC-3 cells; Homo sapiens, 72 h): > 1000 nM | IC50 (22Rv1 cells; Homo sapiens, 72 h): > 1000 nM | IC50 (VCaP cells; Homo sapiens, 72 h): > 1000 nM

C[C@]12C=CC(=O)N[C@@H]1CC[C@@H]1[C@@H]2CC[C@]2(C)[C@@H](C(=O)NCCCCCCNc3ccc4c(c3)C(=O)N(C3CCC(=O)NC3=O)C4=O)CC[C@@H]12 (stereo partly drawn) [C10, N-(6-((5-(2-(3-(2,6-dioxopiperidine))-isoindole-1,3-dione))amino)hexyl)-3-oxo-4-aza-5α-androst-1-ene-17β-carboxamide]
IC50 (PC-3 cells; Homo sapiens, 72 h): > 1000 nM | IC50 (22Rv1 cells; Homo sapiens, 72 h): > 1000 nM | IC50 (VCaP cells; Homo sapiens, 72 h): > 1000 nM

C[C@]12C=CC(=O)N[C@@H]1CC[C@@H]1[C@@H]2CC[C@]2(C)[C@@H](C(=O)Nc3ccc(OCCCCCCNc4cccc5c4C(=O)N(C4CCC(=O)NC4=O)C5=O)cc3)CC[C@@H]12 (stereo partly drawn) [C21, N-(4-((6-((4-(2-(3-(2,6-dioxopiperidine))-isoindole-1,3-dione))amino)hexyl)oxy)phenyl)-3-oxo-4-aza-5α-androst-1-ene-17β-carboxamide]
IC50 (PC-3 cells; Homo sapiens, 72 h): > 1000 nM | IC50 (22Rv1 cells; Homo sapiens, 72 h): > 1000 nM | IC50 (VCaP cells; Homo sapiens, 72 h): > 1000 nM

C[C@]12C=CC(=O)N[C@@H]1CC[C@@H]1[C@@H]2CC[C@]2(C)[C@@H](C(=O)Nc3cccc(NC4CCC(Nc5cccc6c5C(=O)N(C5CCC(=O)NC5=O)C6=O)CC4)c3)CC[C@@H]12 (stereo partly drawn) [C54, N-(3-((4-((4-(2-(3-(2,6-dioxopiperidine))-isoindole-1,3-dione))amino)cyclohexyl)amino)phenyl)-3-oxo-4-aza-5α-androst-1-ene-17β-carboxamide]
IC50 (PC-3 cells; Homo sapiens, 72 h): > 1000 nM | IC50 (22Rv1 cells; Homo sapiens, 72 h): > 1000 nM | IC50 (VCaP cells; Homo sapiens, 72 h): > 1000 nM
